As a reminder, the IC50 is the concentration at which inhibition is half-maximal. Read a high IC50 as lower potency. What is called half-life is how long it takes for the measured level to halve. Read a high half-life as slow decline. For orientation: EC50 means the concentration needed to bring the measured effect to its halfway point. Low readings indicate a more potent agent, high ones a less potent agent. For orientation: Vd means a proportionality between amount in the body and measured concentration, not a real space. High values mean wide distribution into tissue, low ones little distribution into tissue. For orientation: clearance means the rate of elimination divided by the concentration. A higher clearance goes with efficient removal.

Series [1] addresses T1, Oxysterols receptor LXR-beta (Homo sapiens, UniProt P55055).
T1 sequence (P55055 whole entry): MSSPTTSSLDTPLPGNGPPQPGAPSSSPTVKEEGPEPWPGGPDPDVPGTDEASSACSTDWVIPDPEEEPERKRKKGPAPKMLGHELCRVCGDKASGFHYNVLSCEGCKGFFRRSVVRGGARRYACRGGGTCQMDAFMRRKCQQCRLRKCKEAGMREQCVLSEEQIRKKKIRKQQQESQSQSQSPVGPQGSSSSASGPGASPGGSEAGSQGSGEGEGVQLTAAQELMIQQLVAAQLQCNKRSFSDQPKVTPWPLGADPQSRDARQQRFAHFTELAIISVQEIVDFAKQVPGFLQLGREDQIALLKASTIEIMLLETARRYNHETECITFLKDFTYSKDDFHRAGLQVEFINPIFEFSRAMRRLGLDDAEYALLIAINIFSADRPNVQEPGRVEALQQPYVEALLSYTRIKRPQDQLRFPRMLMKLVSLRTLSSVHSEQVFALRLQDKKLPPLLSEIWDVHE

Series [2] has as its target T2, Peroxisome proliferator-activated receptor delta (Homo sapiens, UniProt Q03181).
T2 sequence (Q03181 whole entry): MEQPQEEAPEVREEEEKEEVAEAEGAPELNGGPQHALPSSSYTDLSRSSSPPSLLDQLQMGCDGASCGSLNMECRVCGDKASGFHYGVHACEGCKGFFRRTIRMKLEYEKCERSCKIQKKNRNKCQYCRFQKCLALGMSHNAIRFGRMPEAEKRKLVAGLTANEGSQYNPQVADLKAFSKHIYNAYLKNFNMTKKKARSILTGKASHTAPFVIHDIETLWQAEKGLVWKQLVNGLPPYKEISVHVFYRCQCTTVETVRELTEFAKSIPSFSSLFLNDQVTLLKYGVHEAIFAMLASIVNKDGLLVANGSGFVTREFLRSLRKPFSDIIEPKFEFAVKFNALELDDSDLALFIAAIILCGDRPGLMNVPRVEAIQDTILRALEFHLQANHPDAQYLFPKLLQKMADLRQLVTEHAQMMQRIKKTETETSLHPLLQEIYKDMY

Series [3] has as its target T3, Oxysterols receptor LXR-alpha (Homo sapiens, UniProt Q13133).
T3 sequence (Q13133 whole entry): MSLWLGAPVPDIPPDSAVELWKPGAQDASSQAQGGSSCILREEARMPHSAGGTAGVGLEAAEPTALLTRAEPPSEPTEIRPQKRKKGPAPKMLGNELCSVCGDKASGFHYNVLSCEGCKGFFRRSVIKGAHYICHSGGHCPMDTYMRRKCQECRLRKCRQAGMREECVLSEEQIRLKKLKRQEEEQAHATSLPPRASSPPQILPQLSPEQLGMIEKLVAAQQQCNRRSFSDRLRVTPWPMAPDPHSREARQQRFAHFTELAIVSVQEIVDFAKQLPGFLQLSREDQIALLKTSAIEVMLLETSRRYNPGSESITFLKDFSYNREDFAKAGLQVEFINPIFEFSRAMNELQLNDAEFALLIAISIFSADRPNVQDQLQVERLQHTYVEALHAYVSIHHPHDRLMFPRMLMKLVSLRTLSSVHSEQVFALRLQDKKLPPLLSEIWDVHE

Series [4] is described as follows: in vivo. As to conditions: mouse.
Series [5] has as its target T1, Oxysterols receptor LXR-beta. In kind it is functional, cell-based, CHO.
Series [6] can be described thus: in vivo. As to conditions: mouse, iv, 0.5 mg/kg.
A short description of series [7]: in vivo. As to conditions: mouse, iv, 0.5 mg/kg. The source holds these as a separate data set.
The target in series [8] is T3, Oxysterols receptor LXR-alpha. In kind it is functional, cell-based, CHO.
A further series is filed under the species Mus musculus. As to conditions: in vivo.
In series [9] the target is T4, Peroxisome proliferator-activated receptor alpha (Homo sapiens, UniProt Q07869).
T4 sequence (Q07869 whole entry): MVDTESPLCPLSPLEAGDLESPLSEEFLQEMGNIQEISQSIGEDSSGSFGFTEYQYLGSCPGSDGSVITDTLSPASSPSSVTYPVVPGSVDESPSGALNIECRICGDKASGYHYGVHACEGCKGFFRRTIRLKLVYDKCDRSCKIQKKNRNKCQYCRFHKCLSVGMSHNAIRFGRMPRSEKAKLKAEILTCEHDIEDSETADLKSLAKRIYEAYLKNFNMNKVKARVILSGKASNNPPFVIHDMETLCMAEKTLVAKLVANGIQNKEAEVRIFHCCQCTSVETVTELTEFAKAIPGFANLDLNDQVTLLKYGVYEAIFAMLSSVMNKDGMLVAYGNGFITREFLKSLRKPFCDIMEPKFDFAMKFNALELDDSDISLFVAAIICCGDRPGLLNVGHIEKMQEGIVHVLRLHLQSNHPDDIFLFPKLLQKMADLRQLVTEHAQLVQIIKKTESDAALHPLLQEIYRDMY

Consider `CCCc1c(OCCCN(C)c2ccc(CC(=O)O)cc2Cl)ccc2c(C(F)(F)F)noc12`, for which the IC50 in [1] was 170 nM; in series [2], 49 nM; in [3] it was 630 nM.
In “in vivo [4]”, `CCCc1c(OCCCN(C)c2cnc(CC(=O)O)cn2)ccc2c(C(F)(F)F)noc12` had a half-life of 2.1 h. The concentration for half-maximal inhibition (IC50) in series [1] was 40 nM; in series [3], 90 nM. The values for the EC50 in series [5] and in [8] were 150 nM and 540 nM, respectively. In “in vivo [6]”, this compound returned a Vd of 2.8 L/kg. In the series “in vivo [7]”, this compound gave a clearance of 17 mL/min/kg. For the same compound, in the series filed under Mus musculus, the AUC was 7.5 µM·kg·h/mg.
For the compound `CCCc1c(OCCCn2nnc3cc(CC(=O)O)ccc32)ccc2c(C(F)(F)F)noc12`, the IC50 in [1] was found to be 350 nM; in [3], 410 nM; in [9], 4400 nM. The EC50 amounted to 1700 nM in [5] and 2300 nM in series [8].
Consider `CCCc1c(OCCCN(C)c2ccc(CC(=O)O)cn2)ccc2c(C(F)(F)F)noc12`, for which the values for the IC50 in [1] and in series [3] were 630 nM and 105 nM, respectively. This compound also returned an EC50 in series [8] of 5000 nM.
The compound `CCCc1c(OCCCN(C=O)c2ccc(CC(=O)O)cc2)ccc2c(C(F)(F)F)noc12` registered an IC50 in series [3] of 6400 nM.
For `CCCc1c(OCCCN(C)c2ccc(CC(=O)O)cc2)ccc2c(C(F)(F)F)noc12`, the IC50 in series [1] was found to be 25 nM; in series [2], 310 nM; in [3], 18 nM; in series [9], 310 nM. The figures for the concentration giving a half-maximal response (EC50) in [5] and in series [8] were 360 nM and 450 nM, respectively.
Turning to `CCCc1c(OCCCN(C)c2ccc(CC(=O)O)cc2C)ccc2c(C(F)(F)F)noc12`, the IC50 came to 320 nM in [1], 580 nM in [3] and 600 nM in series [9].
For `CCCc1c(OCCCCc2ccc(CC(=O)O)cc2)ccc2c(C(F)(F)F)noc12`, the IC50 in [1] was 970 nM; in [3] it was 530 nM.
Turning to `CCCc1c(OCCCN(C)c2cccc(CC(=O)O)c2)ccc2c(C(F)(F)F)noc12`, the IC50 in [1] amounted to 98 nM; in series [2] it was 93 nM; in series [3], 102 nM; in [9], 1500 nM. Also, the EC50 amounted to 3500 nM in series [5] and 2600 nM in series [8].
For `CCCc1c(OCCCn2cnc3cc(CC(=O)O)ccc32)ccc2c(C(F)(F)F)noc12`, the results for the IC50 in series [1], in series [2] and in series [3] were 410 nM, 1800 nM and 180 nM, respectively. Moreover, the EC50 in series [5] was found to be 8600 nM.
In turn, `O=C(O)Cc1cccc(OCCCN(Cc2cccc(C(F)(F)F)c2Cl)CC(c2ccccc2)c2ccccc2)c1` had a half-life in the series “in vivo [4]” of 3.4 h. Besides, the Vd in the series “in vivo [6]” was 1.2 L/kg. Besides, the clearance in “in vivo [7]” was determined as 8 mL/min/kg. Besides, the AUC in the series filed under Mus musculus came to 2 µM·kg·h/mg.
For the compound `CCCc1c(OCCCN(CC)c2ccc(CC(=O)O)cc2)ccc2c(C(F)(F)F)noc12`, the IC50 in series [1] turned out to be 140 nM; in [2], 8600 nM; in series [3], 110 nM; in [9] it was 2600 nM.
Turning to `CCCc1c(OCCCN(C)c2ccc(CC(=O)O)c(Cl)c2)ccc2c(C(F)(F)F)noc12`, the IC50 in series [1] was 10 nM; in series [2], 1400 nM; in [3], 12 nM. In addition, the EC50 was 124 nM in series [5] and 170 nM in [8].
In “in vivo [4]”, `CCCc1c(OCCCN(C)c2ncc(CC(=O)O)s2)ccc2c(C(F)(F)F)noc12` gave a half-life of 1.2 h. For the same compound, the IC50 in [1] was determined as 100 nM; in series [3], 67 nM. Besides, the EC50 in series [5] was 650 nM; in [8], 1100 nM. The compound further had a distribution volume (Vd) in “in vivo [6]” of 1.2 L/kg. The clearance in “in vivo [7]” was 13 mL/min/kg. For the same compound, the AUC in the series listed under Mus musculus amounted to 3.1 µM·kg·h/mg.
As to `CCCc1c(OCCCN2C(=O)Cc3cc(C(=O)O)ccc32)ccc2c(C(F)(F)F)noc12`, the IC50 in series [1] stood at 700 nM; in series [3] it was 97 nM. The EC50 in series [5] came to 4400 nM; in series [8], 3000 nM.
In the same order, the values of `CCCc1c(OCCCN(C)c2ncc(CC(=O)O)cn2)ccc2c(C(F)(F)F)noc12` are 55 nM, 26 nM, 470 nM and 620 nM.
For the compound `CCCc1c(OCCCn2ccc3cc(CCC(=O)O)ccc32)ccc2c(C(F)(F)F)noc12`, the IC50 came out at 6 nM in series [1], 70 nM in series [2], 18 nM in series [3] and 450 nM in series [9]. Moreover, the EC50 in series [5] came out at 700 nM; in series [8], 820 nM.
In the case of `CCCc1c(OCCCN(C)c2ccc(CC(=O)O)c(C(F)(F)F)c2)ccc2c(C(F)(F)F)noc12`, the 50% inhibitory concentration (IC50) in series [1] is 18 nM; in [2] it was 540 nM; in series [3] it was 60 nM; in [9], 140 nM. The EC50 in series [5] came to 1300 nM; in [8] it was 3600 nM.
`CCCc1c(OCCCN(C(C)=O)c2ccc(CC(=O)O)cc2)ccc2c(C(F)(F)F)noc12` yielded an IC50 in [3] of 6400 nM.
As to `CCCc1c(OCCCOc2ccc(CC(=O)O)cc2Cl)ccc2c(C(F)(F)F)noc12`, the half-maximal inhibitory concentration (IC50) came to 65 nM in series [1], 39 nM in series [3] and 230 nM in series [9]. This compound came in with a half-maximal effective concentration (EC50) in series [5] of 9700 nM.
For the compound `CCCc1c(OCCCN(C)c2ccccc2)ccc2c(C(F)(F)F)noc12`, the IC50 in series [1] worked out at 428 nM; in [3] it was 372 nM.
For `CCCc1c(OCCCN(C)c2ccc(CC(=O)O)c(C)c2)ccc2c(C(F)(F)F)noc12`, the IC50 in series [1] is 26 nM; in series [2], 150 nM; in [3], 117 nM; in series [9] it was 870 nM. Besides, the results for the half-maximal effective concentration (EC50) in [5] and in series [8] were 303 nM and 1300 nM, respectively.
For `CCCc1c(OCCCn2ncc3cc(CC(=O)O)ccc32)ccc2c(C(F)(F)F)noc12`, the IC50 came to 87 nM in series [1], 73 nM in series [3] and 780 nM in series [9]. Further, the figures for the EC50 in series [5] and in series [8] were 580 nM and 480 nM, respectively.
Taken in the same sequence, the figures for `CCCc1c(OCCCn2ccc3cc(C(=O)O)ccc32)ccc2c(C(F)(F)F)noc12` were 199 nM, 72 nM, 8300 nM, 2800 nM and 1900 nM.
On to `CCCc1c(OCCCN(C)c2ccc(C(=O)O)cc2)ccc2c(C(F)(F)F)noc12`, for which the figures for the IC50 in series [1] and in [3] were 190 nM and 79 nM, respectively. The EC50 was 5100 nM in series [5] and 6000 nM in series [8].
Turning to `CCCc1c(OCCCSc2ccc(CC(=O)O)cc2Cl)ccc2c(C(F)(F)F)noc12`, the half-maximal inhibitory concentration (IC50) was 4 nM in series [2], 32 nM in series [3] and 280 nM in series [9]. Moreover, in series [8], the EC50 is 5900 nM.
As to `CCCc1c(OCCCNc2ccc(CC(=O)O)cc2)ccc2c(C(F)(F)F)noc12`, the IC50 came out at 89 nM in [1], 88 nM in series [2], 68 nM in [3] and 16 nM in series [9]. Besides, the EC50 came to 7700 nM in [5] and 8000 nM in series [8].
On to `CCCc1c(OCCCOc2ccc(CC(=O)O)cc2)ccc2c(C(F)(F)F)noc12`, for which the IC50 stood at 100 nM in series [1], 8 nM in series [2], 730 nM in [3] and 19 nM in series [9].

(Values after ChEMBL document CHEMBL1148661, “SAR studies: designing potent and selective LXR agonists” (Bioorg Med Chem Lett, 2006).)
